# Read-outs that look alike come from different tables or passages of the source.
# How the values were obtained:
# Format in all cases: binding
# EGFR(G719S) = EGFR(G719S) (Homo sapiens, UniProt P00533, G719S); test: biochemical; conditions: 1000 nM, read-out: Percent Control
# LRRK2(G2019S) = LRRK2(G2019S) (Homo sapiens, UniProt Q5S007, G2019S); test: biochemical; conditions: read-out: Percent Control
# PIK3CA(I800L) = PIK3CA(I800L) (Homo sapiens, UniProt P42336, I800L); test: biochemical; conditions: read-out: Percent Control
# FLT3(N841I) = FLT3(N841I) (Homo sapiens, UniProt P36888, N841I); test: biochemical; conditions: 1000 nM, read-out: Percent Control
# FGFR3(G697C) = FGFR3(G697C) (Homo sapiens, UniProt P22607, G697C); test: biochemical; conditions: read-out: Percent Control
# EGFR(L861Q) = EGFR(L861Q) (Homo sapiens, UniProt P00533, L861Q); test: biochemical; conditions: 1000 nM, read-out: Percent Control
# MET(Y1235D) = MET(Y1235D) (Homo sapiens, UniProt P08581, Y1235D); test: biochemical; conditions: 1000 nM, read-out: Percent Control
# EGFR(L858R) = EGFR(L858R) (Homo sapiens, UniProt P00533, L858R); test: biochemical; conditions: 1000 nM, read-out: Percent Control
# BRPF1A = BRPF1A (Homo sapiens, UniProt P55201); test: DSF selectivity screening; conditions: 10 μM compound
# PDK4A = PDK4A (Homo sapiens, UniProt Q16654); test: DSF selectivity screening; conditions: 10 μM compound
# Method: (§1) The assay was performed as previously described.[29],[35] Briefly, recombinant protein kinase domains at a concentration of 2 μM were mixed with a 10 μM compound in a buffer containing 20 mM HEPES, pH 7.5, and 500 mM NaCl. SYPRO Orange (5000×, Invitrogen) was added as a fluorescence probe (1 μL per mL). Subsequently, temperature-dependent protein unfolding profiles were measured using a QuantStudio 5 real-time PCR machine (Thermo Fisher). Excitation and emission filters were set to 465 and 590 nm, respectively. The temperature was raised with a step rate of 3 °C per minute. Data points were analyzed with internal software (Thermal Shift Software version 1.4, Thermo Fisher) using the Boltzmann equation to determine the inflection point of the transition curve (Table S4).
# MAP2K4A = MAP2K4A (Homo sapiens, UniProt P45985); test: DSF selectivity screening; conditions: 10 μM compound
# Method: as §1
# MST4A = MST4A (Homo sapiens, UniProt Q9P289); test: DSF selectivity screening; conditions: 10 μM compound
# Method: as §1
# DYRK2A = DYRK2A (Homo sapiens, UniProt Q92630); test: DSF selectivity screening; conditions: 10 μM compound
# Method: as §1
# MAP2K1A = MAP2K1A (Homo sapiens, UniProt Q02750); test: DSF selectivity screening; conditions: 10 μM compound
# Method: as §1
# MELKA = MELKA (Homo sapiens, UniProt Q14680); test: DSF selectivity screening; conditions: 10 μM compound
# Method: as §1
# BMPR2A = BMPR2A (Homo sapiens, UniProt Q13873); test: DSF selectivity screening; conditions: 10 μM compound
# Method: as §1
# ALK(L1196M) = ALK(L1196M) (Homo sapiens, UniProt Q9UM73, L1196M); test: biochemical; conditions: 1000 nM, read-out: Percent Control
# FLT3(ITD,D835V) = conditions: 1000 nM
# [1] = target: ABL1(T315I)-nonphosphorylated (Homo sapiens, UniProt P00519, T315I); test: biochemical; conditions: read-out: Percent Control
# [2] = target: ABL1(F317I)-phosphorylated (Homo sapiens, UniProt P00519, F317I); test: biochemical; conditions: compound concentration 100 nM; Entrez ABL1; read-out: Percent Control
# RIPK1 = target: T1, RIPK1 (Homo sapiens, UniProt Q13546); test: scanMAX KINOMEscan (Eurofins)
# T1 construct: full-length LIMK1/2, RIPK1, BTK, and LRRK2 cloned in a frame in a NanoLuc-vector (Promega); host or cells: HEK293T
# T1 sequence (Q13546 1-671): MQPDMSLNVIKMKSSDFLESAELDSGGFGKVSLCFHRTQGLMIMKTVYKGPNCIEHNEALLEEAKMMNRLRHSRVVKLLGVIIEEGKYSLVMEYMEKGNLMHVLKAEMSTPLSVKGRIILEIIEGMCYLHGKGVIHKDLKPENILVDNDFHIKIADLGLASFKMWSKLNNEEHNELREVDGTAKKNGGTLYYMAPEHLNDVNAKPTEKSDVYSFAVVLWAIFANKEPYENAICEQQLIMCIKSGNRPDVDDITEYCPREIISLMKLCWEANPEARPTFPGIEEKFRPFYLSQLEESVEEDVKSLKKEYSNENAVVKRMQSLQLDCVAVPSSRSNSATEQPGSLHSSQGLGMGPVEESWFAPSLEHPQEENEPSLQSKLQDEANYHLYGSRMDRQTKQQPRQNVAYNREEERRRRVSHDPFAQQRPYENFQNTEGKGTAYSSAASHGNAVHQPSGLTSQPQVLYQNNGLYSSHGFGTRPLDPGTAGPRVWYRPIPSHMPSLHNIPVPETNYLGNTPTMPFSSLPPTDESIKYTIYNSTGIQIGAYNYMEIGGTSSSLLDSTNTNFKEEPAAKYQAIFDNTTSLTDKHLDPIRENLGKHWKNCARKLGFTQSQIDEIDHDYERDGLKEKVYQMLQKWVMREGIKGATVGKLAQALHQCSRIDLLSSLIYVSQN
# KIT(L576P) = KIT(L576P) (Homo sapiens, UniProt P10721, L576P); test: biochemical; conditions: 1000 nM, read-out: Percent Control
# BRAF(V600E) = BRAF(V600E) (Homo sapiens, UniProt P15056, V600E); test: biochemical; conditions: 1000 nM, read-out: Percent Control
# LIMK1 = LIMK1 (Homo sapiens, UniProt P53667); test: Differential scanning fluorimetry assay for LIMK1/2; conditions: LIMK1, 10 μM compound
# Method: (§2) The assay was performed according to a previously established protocol. […] The compounds to be tested were added to a final concentration of 10 μM. […] Data were analyzed with MxPro software.
# LIMK2 = LIMK2 (Homo sapiens, UniProt P53671); test: as above; conditions: LIMK2, 10 μM compound
# Method: as §2
# Chain of MET(Y1235D) (P08581 25-1390 Y1235D): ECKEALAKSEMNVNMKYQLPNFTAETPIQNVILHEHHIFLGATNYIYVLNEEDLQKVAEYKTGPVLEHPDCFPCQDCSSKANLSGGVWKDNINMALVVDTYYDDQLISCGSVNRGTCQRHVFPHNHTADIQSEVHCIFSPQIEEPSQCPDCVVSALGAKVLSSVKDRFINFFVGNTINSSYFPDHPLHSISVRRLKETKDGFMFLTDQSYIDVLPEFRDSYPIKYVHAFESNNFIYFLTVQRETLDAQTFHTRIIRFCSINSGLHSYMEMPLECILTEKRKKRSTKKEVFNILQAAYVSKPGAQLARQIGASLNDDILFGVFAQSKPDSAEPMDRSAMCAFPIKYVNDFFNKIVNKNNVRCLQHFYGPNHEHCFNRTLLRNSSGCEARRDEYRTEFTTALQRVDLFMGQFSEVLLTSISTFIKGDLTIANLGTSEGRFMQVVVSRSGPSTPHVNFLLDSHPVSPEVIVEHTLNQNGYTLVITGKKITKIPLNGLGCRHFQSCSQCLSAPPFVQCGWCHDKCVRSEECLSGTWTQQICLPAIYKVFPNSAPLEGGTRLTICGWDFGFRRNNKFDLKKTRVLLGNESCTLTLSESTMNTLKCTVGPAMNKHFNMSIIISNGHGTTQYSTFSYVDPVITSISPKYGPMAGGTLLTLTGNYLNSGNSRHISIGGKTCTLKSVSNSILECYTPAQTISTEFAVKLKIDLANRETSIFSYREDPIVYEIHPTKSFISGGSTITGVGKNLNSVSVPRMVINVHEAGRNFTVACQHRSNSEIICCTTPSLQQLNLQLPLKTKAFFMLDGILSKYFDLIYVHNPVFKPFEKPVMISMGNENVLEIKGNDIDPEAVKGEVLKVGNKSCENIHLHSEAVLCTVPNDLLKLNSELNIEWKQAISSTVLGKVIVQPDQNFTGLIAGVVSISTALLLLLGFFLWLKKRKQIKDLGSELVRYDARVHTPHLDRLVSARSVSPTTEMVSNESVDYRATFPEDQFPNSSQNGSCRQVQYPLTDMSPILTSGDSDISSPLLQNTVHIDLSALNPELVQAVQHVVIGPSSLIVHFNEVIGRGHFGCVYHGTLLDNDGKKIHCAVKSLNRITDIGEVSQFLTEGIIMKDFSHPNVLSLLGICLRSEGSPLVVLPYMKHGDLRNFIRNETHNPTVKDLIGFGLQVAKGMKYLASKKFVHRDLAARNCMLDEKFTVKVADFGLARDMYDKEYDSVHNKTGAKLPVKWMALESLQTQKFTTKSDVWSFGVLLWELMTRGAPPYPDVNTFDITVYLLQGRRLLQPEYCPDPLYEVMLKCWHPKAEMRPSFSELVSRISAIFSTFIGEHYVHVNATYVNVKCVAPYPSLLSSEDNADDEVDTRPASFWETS
# Chain of LRRK2(G2019S) (Q5S007 whole entry G2019S): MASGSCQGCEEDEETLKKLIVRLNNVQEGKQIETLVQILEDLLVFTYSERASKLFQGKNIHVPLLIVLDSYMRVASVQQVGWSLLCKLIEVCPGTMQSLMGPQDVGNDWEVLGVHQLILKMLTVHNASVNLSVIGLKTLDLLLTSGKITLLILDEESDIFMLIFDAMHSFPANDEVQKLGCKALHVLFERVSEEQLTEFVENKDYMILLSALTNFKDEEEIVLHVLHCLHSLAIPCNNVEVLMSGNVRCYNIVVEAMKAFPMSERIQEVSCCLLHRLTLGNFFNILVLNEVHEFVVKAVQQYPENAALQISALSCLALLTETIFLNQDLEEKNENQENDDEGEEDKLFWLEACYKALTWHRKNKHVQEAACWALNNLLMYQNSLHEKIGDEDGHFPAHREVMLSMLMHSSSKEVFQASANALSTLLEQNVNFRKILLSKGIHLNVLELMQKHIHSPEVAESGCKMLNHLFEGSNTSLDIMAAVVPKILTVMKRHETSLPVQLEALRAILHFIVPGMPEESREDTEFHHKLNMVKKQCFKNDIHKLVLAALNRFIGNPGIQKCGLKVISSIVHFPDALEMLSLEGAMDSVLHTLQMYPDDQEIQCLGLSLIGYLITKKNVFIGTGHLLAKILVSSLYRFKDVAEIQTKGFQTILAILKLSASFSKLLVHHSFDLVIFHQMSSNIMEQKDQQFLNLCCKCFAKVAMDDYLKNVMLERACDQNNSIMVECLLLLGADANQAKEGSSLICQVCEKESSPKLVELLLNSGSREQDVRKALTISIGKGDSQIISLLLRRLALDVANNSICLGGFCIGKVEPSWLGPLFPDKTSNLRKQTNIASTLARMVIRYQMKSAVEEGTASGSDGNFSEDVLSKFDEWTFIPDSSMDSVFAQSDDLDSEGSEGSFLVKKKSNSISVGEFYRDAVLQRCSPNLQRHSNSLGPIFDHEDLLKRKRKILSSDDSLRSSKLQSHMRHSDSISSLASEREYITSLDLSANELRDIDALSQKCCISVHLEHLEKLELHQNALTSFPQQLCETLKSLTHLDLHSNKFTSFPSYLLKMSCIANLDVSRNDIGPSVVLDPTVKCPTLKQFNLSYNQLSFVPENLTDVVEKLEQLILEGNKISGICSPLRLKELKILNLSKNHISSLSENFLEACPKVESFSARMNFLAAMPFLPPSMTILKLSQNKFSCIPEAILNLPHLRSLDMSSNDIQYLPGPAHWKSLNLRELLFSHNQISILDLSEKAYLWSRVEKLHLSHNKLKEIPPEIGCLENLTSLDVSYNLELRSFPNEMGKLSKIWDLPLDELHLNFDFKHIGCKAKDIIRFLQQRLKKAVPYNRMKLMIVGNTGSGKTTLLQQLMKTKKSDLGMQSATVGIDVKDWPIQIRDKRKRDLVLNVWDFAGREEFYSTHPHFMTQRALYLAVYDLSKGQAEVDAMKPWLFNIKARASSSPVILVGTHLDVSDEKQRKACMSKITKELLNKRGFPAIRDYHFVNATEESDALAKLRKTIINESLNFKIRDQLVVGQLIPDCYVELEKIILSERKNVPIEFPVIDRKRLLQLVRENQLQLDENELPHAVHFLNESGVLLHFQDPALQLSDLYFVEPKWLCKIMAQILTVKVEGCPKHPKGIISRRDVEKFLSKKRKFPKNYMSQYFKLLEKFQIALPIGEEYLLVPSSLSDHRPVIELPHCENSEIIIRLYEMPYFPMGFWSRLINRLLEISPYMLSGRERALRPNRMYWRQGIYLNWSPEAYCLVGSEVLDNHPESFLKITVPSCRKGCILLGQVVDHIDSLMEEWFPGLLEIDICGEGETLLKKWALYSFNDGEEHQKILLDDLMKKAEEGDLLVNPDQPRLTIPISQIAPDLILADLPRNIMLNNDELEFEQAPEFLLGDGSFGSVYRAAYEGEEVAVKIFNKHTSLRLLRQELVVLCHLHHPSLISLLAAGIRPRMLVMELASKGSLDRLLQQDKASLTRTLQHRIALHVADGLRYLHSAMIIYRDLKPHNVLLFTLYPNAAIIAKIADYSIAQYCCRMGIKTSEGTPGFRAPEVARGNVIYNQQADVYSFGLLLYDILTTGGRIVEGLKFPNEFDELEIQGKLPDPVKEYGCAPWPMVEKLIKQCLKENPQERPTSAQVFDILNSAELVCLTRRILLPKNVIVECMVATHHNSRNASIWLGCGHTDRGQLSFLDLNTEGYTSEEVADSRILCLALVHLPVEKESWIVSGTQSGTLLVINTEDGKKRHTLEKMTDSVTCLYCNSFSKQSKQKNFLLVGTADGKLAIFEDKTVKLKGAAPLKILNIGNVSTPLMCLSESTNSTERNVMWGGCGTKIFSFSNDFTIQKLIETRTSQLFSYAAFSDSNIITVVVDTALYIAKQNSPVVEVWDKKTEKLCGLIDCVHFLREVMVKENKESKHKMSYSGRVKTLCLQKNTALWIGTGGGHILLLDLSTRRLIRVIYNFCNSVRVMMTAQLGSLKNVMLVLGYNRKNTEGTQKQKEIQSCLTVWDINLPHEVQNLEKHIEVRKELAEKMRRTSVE
# Chain of PIK3CA(I800L) (P42336 whole entry I800L): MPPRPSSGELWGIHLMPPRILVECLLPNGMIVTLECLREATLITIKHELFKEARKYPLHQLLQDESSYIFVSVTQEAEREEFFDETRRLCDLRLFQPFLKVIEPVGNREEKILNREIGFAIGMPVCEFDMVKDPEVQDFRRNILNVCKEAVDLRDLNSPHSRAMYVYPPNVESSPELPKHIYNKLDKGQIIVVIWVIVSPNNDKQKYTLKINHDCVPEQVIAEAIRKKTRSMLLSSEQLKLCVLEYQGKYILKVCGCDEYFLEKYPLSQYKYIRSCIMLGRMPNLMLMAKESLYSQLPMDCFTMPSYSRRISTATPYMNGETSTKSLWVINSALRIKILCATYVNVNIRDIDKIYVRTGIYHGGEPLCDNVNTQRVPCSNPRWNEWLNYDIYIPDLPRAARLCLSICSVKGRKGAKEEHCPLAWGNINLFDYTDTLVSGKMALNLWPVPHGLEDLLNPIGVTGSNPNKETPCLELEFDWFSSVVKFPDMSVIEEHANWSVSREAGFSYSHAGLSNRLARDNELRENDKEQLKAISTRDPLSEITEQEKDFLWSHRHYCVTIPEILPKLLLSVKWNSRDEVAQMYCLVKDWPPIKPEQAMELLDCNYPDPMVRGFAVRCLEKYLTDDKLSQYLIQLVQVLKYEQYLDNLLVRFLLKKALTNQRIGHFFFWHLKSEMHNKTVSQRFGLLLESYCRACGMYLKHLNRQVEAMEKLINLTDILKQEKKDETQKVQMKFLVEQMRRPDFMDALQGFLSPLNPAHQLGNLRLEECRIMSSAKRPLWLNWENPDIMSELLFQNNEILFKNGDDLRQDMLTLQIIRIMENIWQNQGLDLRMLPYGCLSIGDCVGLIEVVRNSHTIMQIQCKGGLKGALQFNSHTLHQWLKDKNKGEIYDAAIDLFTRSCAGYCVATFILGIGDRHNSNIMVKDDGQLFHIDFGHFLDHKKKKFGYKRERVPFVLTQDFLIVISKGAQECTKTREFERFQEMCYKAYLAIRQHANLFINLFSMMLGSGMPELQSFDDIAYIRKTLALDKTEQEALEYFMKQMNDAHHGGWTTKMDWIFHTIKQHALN
smiles,measurement,setting,value
"CN1C(=O)[C@@H](N2CCc3c(nn(Cc4ccccc4)c3C(N)=O)C2=O)COc2cc(Cl)ccc21 [Compound 10, (S)-2-benzyl-6-(8-chloro-5-methyl-4-oxo-2,3,4,5-tetrahydrobenzo[b][1,4]oxazepin-3-yl)-7-oxo-4,5,6,7-tetrahydro-2H-pyrazolo[3,4-c]pyridine-3-carboxamide]",remaining activity at 1 µM,EGFR(G719S),92%
same,remaining activity at 1 µM,LRRK2(G2019S),86%
same,remaining activity at 1 µM,PIK3CA(I800L),89%
same,remaining activity at 1 µM,FLT3(N841I),96%
same,remaining activity at 1 µM,FGFR3(G697C),100%
same,remaining activity at 1 µM,EGFR(L861Q),88%
same,remaining activity at 1 µM,MET(Y1235D),93%
same,remaining activity at 1 µM,EGFR(L858R),100%
same,ΔTm at 10 µM,BRPF1A,-0.8 °C
same,ΔTm at 10 µM,PDK4A,0 °C
same,ΔTm at 10 µM,MAP2K4A,0.1 °C
same,ΔTm at 10 µM,MST4A,-0.1 °C
same,ΔTm at 10 µM,DYRK2A,0.1 °C
same,ΔTm at 10 µM,MAP2K1A,0.1 °C
same,ΔTm at 10 µM,MELKA,0.1 °C
same,ΔTm at 10 µM,BMPR2A,0.1 °C
same,remaining activity at 1 µM,ALK(L1196M),90%
same,Percent Control,"FLT3(ITD,D835V)",81%
same,remaining activity at 1 µM,[1],73%
same,remaining activity at 0.1 µM,[2],91%
same,remaining binding at 0.1 µM,"RIPK1; RIPK1 (Entrez RIPK1), 100 nM, read-out: Percent Control",55%
same,remaining binding at 1 µM,"RIPK1; RIPK1, 1 μM, read-out: POC (Top Hits @ 1 μM)",23%
same,remaining binding at 1 µM,"RIPK1; RIPK1, 1000 nM, read-out: Percent Control",23%
same,remaining activity at 1 µM,KIT(L576P),92%
same,remaining activity at 1 µM,BRAF(V600E),100%
CN1C(=O)[C@@H](N2CCc3c(C(N)=O)nn(Cc4ccccc4)c3C2=O)COc2ccccc21 [Compound 11],ΔTM (stabilization in the DSF assay),LIMK1,inactive
same,ΔTM (stabilization in the DSF assay),LIMK2,inactive

# Source: paper PMC12090182, “Repurposing of the RIPK1-Selective Benzo[1,4]oxazepin-4-one Scaffold for the Development of a Type III LIMK1/2 Inhibitor” (ACS Chemical Biology, 2025)
